From paper PMC4919643, “Intestinally-targeted TGR5 agonists equipped with quaternary ammonium have an improved hypoglycemic effect and reduced gallbladder filling effect” (Scientific Reports, 2016)

Tests used:
[1] = Caco-2 permeability determination; format: in vitro ADME; settings: human
Experimental: Caco-2 permeability determination. Caco-2 permeability determination was carried out […]
Caco-2 cells were obtained from the ATCC (Cat#HTB-37) and maintained in Dulbecco’s modified Eagle’s Medium containing 10% fetal bovine serum, 1% glutamine, 1% nonessential amino acids, 100 μg/mL streptomycin, and 100 U/mL penicillin.
CO2 and 90% relative humidity environment. Caco-2 cells were passaged every 7 days at a ratio of 1:10. Cells were used between passages 30 and 40. After 21 days of culture, the integrity of the cell monolayer was verified by measuring the transepithelial electrical […]
Drug transport from the apical side to the basolateral side (A-B) and from the basolateral side to the apical side was measured simultaneously under the same condition.
Propranolol and atenolol were used as the […] control, respectively.
Digoxin was used as the positive control for Pgp-mediated drug efflux. In brief, the method was as follows. After washing the monolayer with HBSS three times, the compounds were diluted and added to the appropriate well (pH 6.8 for apical side and pH […]
7.4 for basolateral side). […] Samples were […]
collected from the donor side at 5 and 95 min, and from the receiver side at 35 and 95 min post-incubation. The concentration of samples was measured by LC-MS/MS. The Papp was calculated from the following equation:
Papp = (VA/(SA×T))×([drug]acceptor/ [durg]initial donor )
Where VA is the volume of the acceptor well, SA is the surface area of the membrane, T is the total transport time, [drug]acceptor is the drug level at the acceptor side, and [drug]initial donor is the drug level at the donor side at T = 0. […]

[2] = Solubility in water determined by LC-MS/MS; format: physicochemical
[3] = biological target: T1, farnesyl X receptor (FXR) (Homo sapiens, UniProt Q96RI1); experiment: FXR assay (LanthaScreen TR-FRET coactivator assay)
T1 sequence (Q96RI1 262-486 limits assumed): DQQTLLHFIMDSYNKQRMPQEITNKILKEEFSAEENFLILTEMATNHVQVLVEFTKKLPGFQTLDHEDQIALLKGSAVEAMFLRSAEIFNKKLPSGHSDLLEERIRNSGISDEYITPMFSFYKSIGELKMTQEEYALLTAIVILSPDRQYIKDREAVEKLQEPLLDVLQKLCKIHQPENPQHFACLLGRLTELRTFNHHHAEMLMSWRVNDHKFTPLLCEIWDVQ

ICR mice = experiment: Oral glucose tolerance test (OGTT) in ICR mice; format: in vivo, mouse
Experimental: Blood glucose levels were measured berefore and after glucose loading. *p < 0.05, **p < 0.01 vs. control. Error bar indicateds SEM (standard error of the mean). […]
Oral glucose tolerance test (OGTT) and gallbladder filling assay in ICR mice. 100 […]
mice (n = 7-8) 90 min prior to the oral glucose load (4 g/kg). Blood glucose levels were measured via blood drops obtained by clipping the tail of the mice using an Accu-Chek Advantage II Glucose Monitor (Roche, Indianapolis, IN, USA) before compound dosing and 0, 15, 30, 60, and 120 min after the glucose load. The area under the concentration−time curve from 0 to 120 min (AUC0−120 min, Glu) of blood glucose after the glucose load was calculated by the trapezoidal rule. […]

ob/ob mice = experiment: Acute efficacy (blood glucose) in ob/ob mice; format: in vivo, mouse; settings: 100 mg/kg p.o. single dose
Experimental: Mice were refed at 6 h after dosing. *p < 0.05, **p < 0.01 vs. control. Error bar indicates SEM.
Acute efficacy in ob/ob mice. 7-week-old ob/ob mice (male) were divided into three groups (n = 8) based on 2 h-fasted blood glucose. […]
mg/kg) and 0.25% CMC (control) was then orally administered to 2 h-fasted mice, and blood glucose was measured at 2, 4, 6, 8, 10, and 24 h after dosing. The animals were refed at 6 h after dosing.
GLP-1 secretion in ob/ob mice. The ob/ob mice (female) were divided into 4 groups and […]
then divided into 3 subgroup of different time point (n = 8-9 each subgroup). All the animals were fasted for 6 hours before collecting blood samples at the indicated time points. At other times, animals were free accessed to water and food. […] Concentrations of active GLP-1[7-36 amide] in the serum were measured using ELISA kit from Linco Research. […]
administered to 12 h-fasted ob/ob mice (n = 3 per time point). […] After centrifugation at 11000 rpm for 5 mins, the supernatant was analyzed by LC-MS/MS. […]
administered orally to overnight-fasted ob/ob mice (male, n = 3-6). 1 h after dosing, mice were refed for 3 hours, and then gallbladders were removed, and the area was measured using vernier caliper. The relative gallbladder area was calculated from the length multiplied by the width of the gallbladder. The bile weight was measured using […]

mouse TGR5 = biological target: T2, mouse TGR5 (Mus musculus, UniProt Q80SS6); experiment: In vitro TGR5 reporter gene assay (mTGR5/CRE/HEK293)
T2 sequence (Q80SS6 1-329): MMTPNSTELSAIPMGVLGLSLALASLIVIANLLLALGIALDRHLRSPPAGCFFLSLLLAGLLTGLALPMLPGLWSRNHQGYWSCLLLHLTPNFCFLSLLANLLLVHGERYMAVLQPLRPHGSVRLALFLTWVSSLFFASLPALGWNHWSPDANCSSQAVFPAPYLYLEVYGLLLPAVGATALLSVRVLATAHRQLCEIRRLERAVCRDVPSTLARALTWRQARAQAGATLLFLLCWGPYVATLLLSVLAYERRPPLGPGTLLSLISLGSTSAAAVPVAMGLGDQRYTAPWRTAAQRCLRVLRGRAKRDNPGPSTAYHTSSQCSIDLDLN

Papp A→B at 95 min ([1]; Caco-2, apical to basolateral side): 0.06 ×10⁻⁶ cm/s
Papp B→A at 95 min ([1]; Caco-2, basolateral to apical side): 0.8 ×10⁻⁶ cm/s
solubility [2]: 1800 µg/mL
concentration up to which activation of FXR was not observed [3]: > 100 µM
EC50 (mouse TGR5): 0.71 nM
SMILES: CN(CC[N+](C)(C)C)C(=O)CCc1cc(Cl)c(Oc2ccsc2C(=O)N2CCN(C3CC3)c3ccccc32)cc1Cl [Compound 26a]
AUC0–120 min of blood glucose, signed change vs control (OGTT, Fig. 3B) (ICR mice; 100 mg/kg p.o.): -18%
decrease of blood glucose AUC vs control (OGTT) (ICR mice; 100 mg/kg p.o. 1.5 h before glucose 4 g/kg): 18%
time post-dosing until which glucose-lowering effect was maintained (ob/ob mice): at least 24 h
